According to ChEMBL document CHEMBL4673253, “Discovery of EST73502, a Dual μ-Opioid Receptor Agonist and σ Receptor Antagonist Clinical Candidate for the Treatment of Pain” (J Med Chem, 2020):

How the values were obtained:
[1] = target: T1, Alpha-1A adrenergic receptor (Homo sapiens) (UniProt P35348); test: Binding affinity to human alpha1A adrenoreceptor expressed in membranes assessed as inhibition of [3H]-prazosin binding incubated for 90 mins by scintillation counting method; set-up: concentration or dose not given beside the values; settings: Cell membrane
T1 sequence (whole entry): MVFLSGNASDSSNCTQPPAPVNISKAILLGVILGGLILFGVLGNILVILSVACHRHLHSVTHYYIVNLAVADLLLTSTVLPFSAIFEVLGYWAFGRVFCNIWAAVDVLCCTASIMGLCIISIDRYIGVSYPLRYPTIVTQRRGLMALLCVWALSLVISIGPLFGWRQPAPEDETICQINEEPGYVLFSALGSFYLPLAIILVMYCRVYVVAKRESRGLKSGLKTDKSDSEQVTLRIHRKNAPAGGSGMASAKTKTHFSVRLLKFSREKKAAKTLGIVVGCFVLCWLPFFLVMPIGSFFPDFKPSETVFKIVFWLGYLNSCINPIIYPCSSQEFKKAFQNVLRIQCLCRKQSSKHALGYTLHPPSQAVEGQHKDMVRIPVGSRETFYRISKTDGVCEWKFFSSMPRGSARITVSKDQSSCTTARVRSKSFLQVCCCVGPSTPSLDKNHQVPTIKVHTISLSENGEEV

hERG (KCNH2) = hERG (KCNH2) (Homo sapiens, UniProt Q12809); test: Inhibition of human ERG expressed in CHO cells at 10 uM at -80 mV holding potential by whole cell patch clamp assay; format: cell-based; settings: CHO cells expressing human ERG
hERG (KCNH2), sequence (Q12809 whole entry): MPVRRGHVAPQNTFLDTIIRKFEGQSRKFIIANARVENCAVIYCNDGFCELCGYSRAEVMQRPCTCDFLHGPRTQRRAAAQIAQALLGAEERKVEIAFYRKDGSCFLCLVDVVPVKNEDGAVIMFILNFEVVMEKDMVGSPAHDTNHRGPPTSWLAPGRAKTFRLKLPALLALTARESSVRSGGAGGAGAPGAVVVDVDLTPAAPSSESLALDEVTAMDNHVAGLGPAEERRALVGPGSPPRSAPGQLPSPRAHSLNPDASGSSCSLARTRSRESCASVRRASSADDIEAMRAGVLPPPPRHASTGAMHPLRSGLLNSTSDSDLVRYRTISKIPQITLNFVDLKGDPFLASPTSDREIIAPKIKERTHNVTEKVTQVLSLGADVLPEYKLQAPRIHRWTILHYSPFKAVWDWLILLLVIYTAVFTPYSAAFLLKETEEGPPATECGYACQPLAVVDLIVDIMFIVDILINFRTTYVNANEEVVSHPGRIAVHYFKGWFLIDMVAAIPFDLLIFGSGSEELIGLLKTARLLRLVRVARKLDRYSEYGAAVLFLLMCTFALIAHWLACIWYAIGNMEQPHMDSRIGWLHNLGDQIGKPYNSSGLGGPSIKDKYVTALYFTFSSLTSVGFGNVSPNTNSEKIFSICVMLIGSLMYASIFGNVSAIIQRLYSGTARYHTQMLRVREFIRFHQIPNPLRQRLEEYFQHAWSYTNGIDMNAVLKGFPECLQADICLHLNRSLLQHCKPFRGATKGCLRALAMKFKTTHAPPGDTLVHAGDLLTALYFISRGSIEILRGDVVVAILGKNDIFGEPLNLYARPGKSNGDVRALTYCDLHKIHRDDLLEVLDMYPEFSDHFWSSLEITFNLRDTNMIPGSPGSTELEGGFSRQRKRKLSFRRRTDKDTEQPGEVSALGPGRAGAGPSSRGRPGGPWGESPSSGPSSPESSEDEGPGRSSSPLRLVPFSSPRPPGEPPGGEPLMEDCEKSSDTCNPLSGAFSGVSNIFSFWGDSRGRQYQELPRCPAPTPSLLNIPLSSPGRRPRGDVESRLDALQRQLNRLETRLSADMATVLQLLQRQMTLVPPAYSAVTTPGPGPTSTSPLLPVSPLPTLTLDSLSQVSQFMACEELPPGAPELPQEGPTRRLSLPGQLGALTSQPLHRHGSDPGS

Mu-type opioid receptor [2] = target: T2, Mu-type opioid receptor (Homo sapiens, UniProt P35372); test: Agonist activity at human MOR expressed in CHOK1 cells assessed as […] of cAMP accumulation incubated for 45 mins by HTRF assay; format: functional, cell-based, CHO-K1
T2 sequence (P35372 whole entry): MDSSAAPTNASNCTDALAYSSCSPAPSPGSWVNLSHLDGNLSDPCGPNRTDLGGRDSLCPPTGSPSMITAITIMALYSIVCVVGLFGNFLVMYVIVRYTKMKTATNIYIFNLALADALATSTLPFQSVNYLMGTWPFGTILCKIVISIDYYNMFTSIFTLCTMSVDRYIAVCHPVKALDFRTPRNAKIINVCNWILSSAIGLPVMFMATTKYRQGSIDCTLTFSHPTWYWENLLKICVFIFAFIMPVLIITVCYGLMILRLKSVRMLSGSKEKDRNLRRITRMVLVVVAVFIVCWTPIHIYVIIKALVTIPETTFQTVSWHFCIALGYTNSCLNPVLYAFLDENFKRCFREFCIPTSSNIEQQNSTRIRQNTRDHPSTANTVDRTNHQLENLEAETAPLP

Mu-type opioid receptor [3] = target: T2, Mu-type opioid receptor; test: Displacement of [3H]-DAMGO from human MOR expressed in CHOK1 cell membranes incubated for 60 mins by liquid scintillation counting method; set-up: species or system CHO-K1, Cell membrane
[4] = target: T3, Sigma non-opioid intracellular receptor 1 (Homo sapiens, UniProt Q99720); test: Displacement of 3H](+)-pentazocine from human sigma1 receptor expressed in HEK293 cell membranes incubated for 120 mins by liquid scintillation counting method; set-up: species or system Cell membrane
T3 sequence (Q99720 whole entry): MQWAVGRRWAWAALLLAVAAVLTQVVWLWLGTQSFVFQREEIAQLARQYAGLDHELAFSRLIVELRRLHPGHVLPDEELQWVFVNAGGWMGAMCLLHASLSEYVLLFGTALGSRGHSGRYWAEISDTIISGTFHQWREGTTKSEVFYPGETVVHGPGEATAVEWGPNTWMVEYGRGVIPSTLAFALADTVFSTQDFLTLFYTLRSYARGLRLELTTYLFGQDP

Mu-type opioid receptor [5] = target: T2, Mu-type opioid receptor; test: Displacement of [3H]-DAMGO from human MOR expressed in CHOK1 cell membranes at 1 uM incubated for 60 mins by liquid scintillation counting method; settings: CHO-K1, Cell membrane
Mu-type opioid receptor [6] = target: T2, Mu-type opioid receptor; test: Agonist activity at human MOR expressed in CHOK1 cells assessed as […] of cAMP accumulation incubated for 45 mins by HTRF assay relative to DAMGO; format: functional, cell-based; settings: CHO-K1, filed as agonist
[7] = target: Voltage-gated inwardly rectifying potassium channel KCNH2 (Homo sapiens, UniProt Q12809)
Voltage-gated inwardly rectifying potassium channel KCNH2, sequence (Q12809 whole entry): as the sequence (Q12809 whole entry) above
Description: Inhibition of human ERG expressed in CHO cells at -80 mV holding potential by whole cell patch clamp assay

[8] = Toxicity in CD1 mouse assessed as inhibition of intestinal transit by measuring percentage of distance traveled by charcoal meal at 20 mg/kg, po; format: organism-based; settings: in vivo
[9] = target: T3, Sigma non-opioid intracellular receptor 1; test: Displacement of 3H](+)-pentazocine from human sigma1 receptor expressed in HEK293 cell membranes at 10 uM incubated for 120 mins by liquid scintillation counting method; settings: Cell membrane
Mus musculus = test: Antinociceptive activity in CD1 mouse PSNL model assessed as reduction in mechanical allodynia by measuring decrease in the pressure required to elicit withdrawal of the ipsilateral paw after von Frey filament stimulation at 1.25 mg/kg, ip BID for 11 days from day 13 to day 22; format: functional; settings: 264 h, time 11 day
Mu-type opioid receptor [10] = target: T2, Mu-type opioid receptor; test: Agonist activity at human MOR expressed in CHOK1 cells assessed as […] of cAMP accumulation at 1 uM incubated for 45 mins by HTRF assay; format: functional, cell-based; settings: CHO-K1
Mu-type opioid receptor [11] = target: T2, Mu-type opioid receptor; test: Agonist activity at human MOR expressed in CHOK1 cells assessed as […] of cAMP accumulation at 10 uM incubated for 45 mins by HTRF assay; format: functional, cell-based; settings: CHO-K1
Mu-type opioid receptor [12] = target: T2, Mu-type opioid receptor; test: Displacement of [3H]-DAMGO from human MOR expressed in CHOK1 cell membranes at 10 uM incubated for 60 mins by liquid scintillation counting method; settings: CHO-K1, Cell membrane

| SMILES | inhibition [1] [%] | inhibition at 10 µM (hERG (KCNH2)) [%] | EC50 (Mu-type opioid receptor [2]) [nM] | Ki (Mu-type opioid receptor [3]) [nM] | Ki [4] [nM] | inhibition (Mu-type opioid receptor [5]) [%] | Emax (Mu-type opioid receptor [6]) [%] | IC50 [7] [µM] | Activity [8] | inhibition [9] [%] | inhibition in vivo at 1.25 mg/kg (Mus musculus) [%] | inhibition (Mu-type opioid receptor [10]) [%] | inhibition (Mu-type opioid receptor [11]) [%] | inhibition (Mu-type opioid receptor [12]) [%] |
| --- | --- | --- | --- | --- | --- | --- | --- | --- | --- | --- | --- | --- | --- | --- |
| O=C1N(c2cccnc2C(F)(F)F)CC2(CCN(CCc3ccccc3F)CC2)OC12CC2 | 57 | < 50 |  |  |  |  |  |  |  |  |  |  |  |  |
| C[C@@H]1OC2(CCN(CCc3ccccc3)CC2)CN(C)C1=O | 6 |  | 1780 | > 1000 | 165 | < 50 |  |  |  |  |  |  |  |  |
| CCN1CC2(CCN(CCc3ccccc3F)CC2)O[C@H](C)C1=O | 15 |  | 24 | 18 | 68 |  | 84 | 4 |  |  |  |  |  |  |
| CC1OC2(CCN(CCc3ccccc3)CC2)CN(C(C)C)C1=O (stereo unspecified) | 35 |  | 21 | 33 | 30 |  | 100 | 3.9 |  |  |  |  |  |  |
| COc1ccc2c3c1O[C@H]1C(=O)CC[C@@]4(O)[C@@H](C2)N(C)CC[C@]314 [OXYCODONE] |  | < 50 |  |  |  |  |  | > 10 | Toxic | < 50 | 51 |  |  |  |
| CN1CC2(CCN(CCc3ccccc3)CC2)OC(c2ccccc2)C1=O (stereo unspecified) | 26 |  | > 1000 | > 1000 | 242 | < 50 |  |  |  |  |  | < 50 |  |  |
| CCN1CC2(CCN(CCc3ccccc3)CC2)OC(C)C1=O (stereo unspecified) | 27 |  | 65 | 41 | 43 |  | 84 | 3.1 |  |  |  |  |  |  |
| CCN1CC2(CCN(CCc3cccc(F)c3F)CC2)O[C@H](C)C1=O | 8 | < 50 | 10 | 22 | 556 |  | 90 | > 10 |  |  |  |  |  |  |
| Cc1cc(OCCN2CCOCC2)nn1-c1ccc2ccccc2c1 |  | < 50 |  |  |  |  |  |  |  |  |  |  | < 50 | < 50 |
| CC(C)C1OC2(CCN(CCc3ccccc3)CC2)CN(C)C1=O (stereo unspecified) | 29 |  | 174 | 115 | 122 |  | 85 | 6.2 |  |  |  |  |  |  |
| C[C@H]1OC2(CCN(CCc3ccccc3)CC2)CN(C)C1=O | 19 | < 50 | 319 | 91 | 277 |  | 83 | > 10 |  |  |  |  |  |  |
| CCN1CC2(CCN(CCc3cc(F)ccc3F)CC2)O[C@@H](C)C1=O | 9 | < 50 |  |  |  |  |  | > 10 |  |  |  |  |  |  |
| CCN1CC2(CCN(CCc3c(F)cccc3F)CC2)O[C@H](C)C1=O | 10 |  | 16 | 21 | 609 |  | 95 |  |  |  |  |  |  |  |
| CCN1CC2(CCN(CCc3ccc(F)cc3)CC2)O[C@H](C)C1=O | 21 |  | 108 | 164 | 76 |  | 81 | 1.5 |  |  |  |  |  |  |
| CC1OC2(CCN(CCc3ccccc3)CC2)CN(C)C1=O (stereo unspecified) | 16 | < 50 | 787 | 156 | 142 |  | 79 | > 10 |  |  |  |  |  |  |
| CCN1CC2(CCN(CCc3ccccc3)CC2)O[C@H](C)C1=O | 14 |  | 49 | 26 | 66 |  | 83 | 4.7 |  |  |  |  |  |  |
| CCN1CC2(CCN(CCc3ccc(F)cc3F)CC2)O[C@H](C)C1=O | 11 |  | 53 | 62 | 94 |  | 92 | 2.5 |  |  |  |  |  |  |
| CC1OC2(CCN(CCc3ccccc3)CC2)CN(c2ccccc2)C1=O (stereo unspecified) | 72 |  |  |  |  |  | 85 |  |  |  |  |  |  |  |
| CC1OC2(CCN(CCc3ccccc3)CC2)CN(CCc2ccccc2)C1=O (stereo unspecified) | 58 |  | 22 | 20 |  |  | 94 | 0.2 |  |  |  |  |  |  |
| C[C@H]1OC2(CCN(CCc3ccccc3)CC2)CN(C2CC2)C1=O | 51 |  | 7 | 6 |  |  | 91 | 4.5 |  |  |  |  |  |  |
| CCN1CC2(CCN(CCc3ccccn3)CC2)OC2(CC2)C1=O | 0 |  | 1500 | > 1000 | 783 |  |  |  |  |  |  |  |  | < 50 |
| CN1CC2(CCN(CCc3ccccc3)CC2)OCC1=O | 36 |  | > 1000 | > 1000 | 282 | < 50 |  |  |  |  |  | < 50 |  |  |
| CN1CC2(CCN(CCc3ccccc3)CC2)OC2(CC2)C1=O | 41 |  | 442 | 221 | 161 |  | 85 | 3.6 |  |  |  |  |  |  |
| CN1CC2(CCN(CCc3ccccc3)CC2)OC(C)(C)C1=O | 37 |  | 624 | > 1000 | 50 | < 50 |  |  |  |  |  |  |  |  |
| CCN1CC2(CCN(CCc3cccc(F)c3)CC2)O[C@H](C)C1=O | 42 |  | 56 | 56 | 64 |  | 83 |  |  |  |  |  |  |  |
| CC[C@H]1OC2(CCN(CCc3ccccc3)CC2)CN(C)C1=O | 13 |  | 505 | 192 | 139 |  | 90 | 6.6 |  |  |  |  |  |  |
| CC1OC2(CCN(CCc3ccccc3)CC2)CN(CCc2ccccc2F)C1=O (stereo unspecified) | 7 | < 50 | > 1000 | > 1000 | 892 | < 50 |  | > 10 |  |  |  | < 50 |  |  |
| CC1OC2(CCN(CCc3ccccc3)CC2)CN(Cc2ccccc2)C1=O (stereo unspecified) | 67 |  | 2 | 2 | 10 |  | 97 | 0.1 |  |  |  |  |  |  |
